Test results taken from ChEMBL document CHEMBL6096682, “Discovery of D-Ring-Contracted Artemisinin as a Potent Hydrophobic Tag for Targeted Protein Degradation” (J Med Chem, 2025).
Active and inactive are the calls of the source. The calls are words filed in the database; no cut-off is given here.

What was measured:
[1] = Toxicity in Balb/c mouse xenografted with human MCF7 cells assessed as effect on spleen morphological changes at 5 to 10 mg/kg, iv measured after 24 hrs by Hematoxylin-Eosin staining based analysis; type: organism-based; settings: in vivo, dose 5-10 mg/kg
MCF7 [2] = experiment: Antitumor activity against human MCF7 cells xenografted in Balb/c mouse assessed as inhibition of tumor growth at 10 mg/kg, iv administered every 3 days and measured for 21 days; type: functional; settings: MCF7, 504 h, time 21 day, read-out: TGI
[3] = target: T1, Estrogen receptor (Homo sapiens) (UniProt P03372); experiment: HyT degrader activity at ER-alpha in human MCF7 cells assessed as induction of ER-alpha degradation at 10 uM incubated for 24 hrs by western blot analysis; type: cell-based
T1 sequence (whole entry): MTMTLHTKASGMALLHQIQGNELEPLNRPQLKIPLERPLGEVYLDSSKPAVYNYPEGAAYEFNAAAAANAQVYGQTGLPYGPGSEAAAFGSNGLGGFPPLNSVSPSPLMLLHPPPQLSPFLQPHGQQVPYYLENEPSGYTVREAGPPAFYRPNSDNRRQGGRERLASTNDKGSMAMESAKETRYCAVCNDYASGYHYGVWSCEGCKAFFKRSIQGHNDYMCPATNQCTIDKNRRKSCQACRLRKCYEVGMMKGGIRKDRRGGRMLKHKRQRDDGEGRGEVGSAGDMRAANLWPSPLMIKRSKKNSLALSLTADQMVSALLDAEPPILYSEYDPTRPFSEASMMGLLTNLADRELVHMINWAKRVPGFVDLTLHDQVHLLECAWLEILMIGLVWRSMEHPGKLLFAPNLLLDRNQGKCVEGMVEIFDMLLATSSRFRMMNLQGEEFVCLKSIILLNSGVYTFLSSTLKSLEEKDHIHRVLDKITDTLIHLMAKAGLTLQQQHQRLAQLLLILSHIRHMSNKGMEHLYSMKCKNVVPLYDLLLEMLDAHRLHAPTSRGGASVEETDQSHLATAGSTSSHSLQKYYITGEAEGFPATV

[4] = Toxicity in Balb/c mouse xenografted with human MCF7 cells assessed as effect on liver morphological changes at 5 to 10 mg/kg, iv measured after 24 hrs by Hematoxylin-Eosin staining based analysis; type: organism-based; settings: in vivo, dose 5-10 mg/kg
[5] = Toxicity in Balb/c mouse xenografted with human MCF7 cells assessed as effect on heart morphological changes at 5 to 10 mg/kg, iv measured after 24 hrs by Hematoxylin-Eosin staining based analysis; type: organism-based; settings: in vivo, dose 5-10 mg/kg
[6] = target: T1, Estrogen receptor (Homo sapiens); experiment: HyT degrader activity at ER-alpha in human MCF7 cells assessed as induction of ER-alpha degradation by measuring decrease in ER-alpha level at 10 uM pretreated with NAE inhibitor, MLN4924 for 2 hrs followed by incubation with compound for 12 hrs by immunoblot analysis; type: cell-based
[7] = Toxicity in Balb/c mouse xenografted with human MCF7 cells assessed as effect on lungs morphological changes at 5 to 10 mg/kg, iv measured after 24 hrs by Hematoxylin-Eosin staining based analysis; type: organism-based; settings: in vivo, dose 5-10 mg/kg
[8] = Nephrotoxicity in Balb/c mouse xenografted with human MCF7 cells assessed as effect on blood urea nitrogen level in serum at 5 to 10 mg/kg, iv measured after 24 hrs; type: toxicity, organism-based; settings: in vivo, dose 5-10 mg/kg
[9] = Toxicity in Balb/c mouse xenografted with human MCF7 cells assessed as changes in body weight at 5 to 10 mg/kg, iv administered every 3 days and measured for 21 days; type: organism-based; settings: in vivo, 504 h, dose 5-10 mg/kg, time 21 day
[10] = Hepatotoxicity in Balb/c mouse xenografted with human MCF7 cells assessed as effect on ALT level in serum at 5 to 10 mg/kg, iv measured after 24 hrs; type: toxicity, organism-based; settings: in vivo, dose 5-10 mg/kg
MCF7 [11] = experiment: Antitumor activity against human MCF7 cells xenografted in Balb/c mouse assessed as tumor tissue damage at 10 mg/kg, iv administered every 3 days and measured on day 21 by Hematoxylin-Eosin staining based analysis; type: functional, organism-based; settings: time 21.0 day
MCF7 [12] = experiment: Antitumor activity against human MCF7 cells xenografted in Balb/c mouse assessed as inhibition of tumor growth at 5 mg/kg, iv administered every 3 days and measured for 21 days; type: functional; settings: MCF7, 504 h, time 21 day, read-out: TGI
[13] = target: T1, Estrogen receptor (Homo sapiens); experiment: HyT degrader activity at ER-alpha in human MCF7 cells assessed as induction of ER-alpha degradation by measuring decrease in ER-alpha level at 10 uM incubated for 48 hrs followed by drug wash-out and measured after 72 hrs by western blot analysis; type: cell-based
MCF7 [14] = experiment: Antitumor activity against human MCF7 cells xenografted in Balb/c mouse assessed as reduction in tumor weight at 5 to 10 mg/kg, iv administered every 3 days and measured on day 21; type: functional, organism-based; settings: dose 5-10 mg/kg, time 21.0 day
[15] = target: T1, Estrogen receptor (Homo sapiens); experiment: HyT degrader activity at ER-alpha in human MCF7 cells assessed as induction of ER-alpha degradation by measuring residual ER-alpha level at 10 uM incubated for 12 hrs by immunoblot analysis; type: cell-based
[16] = target: T1, Estrogen receptor (Homo sapiens); experiment: HyT degrader activity at ER-alpha in human MCF7 cells assessed as induction of ER-alpha degradation by measuring decrease in ER-alpha level at 10 uM pretreated with 26S proteasome inhibitor, MG-132 and NAE inhibitor, MLN4924 for 6 hrs followed by incubation with compound for 24 hrs by immunoblot analysis; type: cell-based
[17] = target: T1, Estrogen receptor (Homo sapiens); experiment: Binding affinity to ER-alpha in human MCF7 cells assessed as increase in thermal stability of protein at 100 uM incubated for 1 hr followed by exposure to heat at 25 to 66 degC for 3 mins and incubation for 3 mins at room temperature by thermal shift binding assay; type: cell-based; settings: time 66.0 min
[18] = target: T1, Estrogen receptor (Homo sapiens); experiment: HyT degrader activity at ER-alpha in human MCF7 cells assessed as induction of ER-alpha degradation by measuring residual ER-alpha level at 10 uM pretreated with HSP70 inhibitor, VER-155008 for 2 hrs followed by incubation with compound for 12 hrs by immunoblot analysis; type: cell-based
MCF7 [19] = experiment: Antiproliferative activity against human MCF7 cells assessed as reduction in cell viability incubated for 48 hrs by MTT assay; type: functional, cell-based; settings: MCF7, 48 h

## C[C@@H]1CCC2[C@]34OO[C@](C)(CCC13)O[C@@H]4O[C@]2(C)C(=O)NCCCOc1ccc(C(=O)c2c(-c3ccc(O)cc3)sc3cc(O)ccc23)cc1 (some centres undefined)
[1]
  Activity: Non-toxic
MCF7 [2]
  inhibition in vivo at 10 mg/kg: 112%
[3]
  Activity: 83.1%
[4]
  Activity: Non-toxic
[5]
  Activity: Non-toxic
[6]
  Activity: inactive
[7]
  Activity: Non-toxic
[8]
  Activity: Non-toxic
[9]
  Activity: Non-toxic
[10]
  Activity: Non-toxic
MCF7 [11]
  Activity: Active
MCF7 [12]
  inhibition in vivo at 5 mg/kg: 93.3%
[13]
  Activity: inactive
MCF7 [14]
  Activity: Active
[15]
  Activity: 23.5%
[16]
  Activity: inactive
[17]
  Activity: Active
[18]
  Activity: 71.9%
MCF7 [19]
  IC50: 2280 nM
